The values below come from patent US20070010574A1, “Use of a trpm8-activating substance for the treatment of tumours” (priority 2002, published 2007).

In one assay the test system is HEK293 TRPM8 cells. In words: tumor growth in hairless mice. The following applies: male hairless mice, HEK293 TRPM8 cells subcutaneous or xenotransplanted in the prostate; 20 mg/kg daily intraperitoneal in DMSO, three weeks; vs untreated control animals. It is filed as in vivo. As to the method: Human TRPM8 cDNA was subcloned in the expression vector pcDNA3.1 and subsequently stably transfected in HEK293 cells. […] To study the effect of menthol or icilin on tumor growth in vivo 2 million HEK293 TRPM8 cells were subcutaneously injected or xenotransplanted in the prostate in male hairless mice. The test groups in each case consisted of 10 animals. The control groups were untreated or treated only with DMSO. The animals were treated by daily intraperitoneal administration of 20 mg/kg body weight icilin or menthol, dissolved in DMSO, over a time interval of three weeks. The growth of the subcutaneously injected cells was measured twice weekly over the entire test duration. Immediately after completion of the trials the “xenotransplants” were resected, weighed and preserved.

For assay [1], the system named is HEK293 cells transfected with TRPM8. In words: soft agar assay, colony formation rate. The note with it: TRPM8 transfected HEK293 cells vs wild type and empty vector cells; menthol 10, 100, and 100 μM in medium, substituted every fifth day; after three weeks. It is filed as cell-based.
Protocol: HEK293 cells were not transfected, transfected with TRPM8 or transfected with an empty vector. The cells were used in a soft agar assay (see reference Shappel et al., Cancer Research 61:497-503 (2001)). The cells highly individually plated out and immobilized in agar are caused to grow three-dimensionally and independently of the substrate in this way. The colony formation rate permits conclusions regarding the tumorigenicity of the cells to be drawn. 1000 cells were plated out in the 6-hole plate in 2 ml of medium containing soft agar and coated with 1 ml of medium (DMEM with 10% FCS, 2mM glutamine) after the agar congealed. Menthol dissolved in ethanol was added to the medium in end concentrations of 10, 100, and 100 μM and substituted every fifth day. The solvent alone was added as a control. After three weeks the number of colonies formed was determined under the microscope.

Take `O=C1NC(c2cccc([N+](=O)[O-])c2)=CCN1c1ccccc1O` [icilin]: the tumor growth entry with HEK293 TRPM8 cells is “distinctly less tumor growth”.

For `CC1CCC(C(C)C)C(O)C1` (stereo not drawn) [menthol], the “number of colonies formed (colony formation rate)” value in assay [1] is “distincly less colony formation”. Moreover, in the assay with HEK293 TRPM8 cells, the tumor growth entry was “distinctly less tumor growth”.
